Data set [1] concerns seeds of corn, cotton, and peanut. Briefly: Phytotoxicity: seed germination in treated sandy soil in pots. Format: in vivo. The following applies: soil treated with 54 ppm, nine days. On the procedure: Sandy soil from a plot that was treated with 54 ppm of trans-2-octenal was removed to small pots in which either seeds of corn, cotton, and peanut were sown (FIGS. 16A-16C) or tomato seedlings were planted therein (FIG. 16E).

In data set [2] the test system is Fusarium oxysporum f sp. radicis-cucumerinum (FORC). The experiment in a line: Effect on FORC in loam soil in buckets. The data set is classed as in vivo. The protocol:
(§1) The activity of trans-2-octenal was examined against phytopathogenic fungi and weeds. The experiment was performed in large buckets (110 L), which bottoms were removed, and therefore the loam in the bucket was continuous with the ground. The soil was inoculated one day prior the application of the compound. Soil inoculation was performed as follows: spores of Fusarium oxysporum f sp. radicis-cucumerinum (FORC) were collected from culture plates and 25 mL of spore suspension at concentration of 9×10^5 was mixed with 10 L of tap water and then poured on the soil of each bucket. […] Half of the buckets were sealed with nylon while the other half remained open. Five days later, soil samples from three different depths (10, 20, and 30 cm) were taken from each bucket for fungal isolation and determination of fungal survival. […] After 3 days, the number of colonies was counted. […] Similar results were obtained at close condition, except at depth 30 cm at concentration of 62.5 ppm.

The next data set has as its system sclerotia of S. rolfsii. The experiment in a line: Open field experiment in sandy soil. Format: in vivo, Sclerotium rolfsii. Conditions: emulsion, 54 ppm active compound, 6 days. On the procedure:
In this experiment, an emulsions of trans-2-octenal (25% active compound) such as those described in Example 9 were used. The soil was inoculated with chlamydospores of Forl and sclerotia of S. rolfsii. Five gram of soil, highly inoculated with chlamydospores were wrapped in nylon tights and buried in the field at depths of 10, 30, and 50 cm. Tea bags containing 50 S. rolfsii sclerotia were prepared as described above and buried similarly. After 6 days, trans-2-octenal emulsion, at concentration of 54 ppm (active compound) was applied using the irrigation system. The same conditions were applied to a control plot except that the plot was irrigated with tap water without the compound. The plots were left open during the time of the experiment. After 6 days, the pathogens were removed from the soil and their viability was examined using PDA+tet culture plates. […] As shown in these figures, elimination of both phytopathogenic fungi occurred at the lowest depth of 10 cm.

Data set [3] concerns Fusarium oxysporum f sp. radicis-lycopersici (Forl). Briefly: Effect on Forl in loam soil in buckets, applied by irrigation system. Format: in vivo. The following applies: open and close conditions, except depth 30 cm at the lowest concentration in close condition. The protocol: as §1
The experiment was repeated with the following modifications: different phytopathogenic fungus—Fusarium oxysporum f sp. radicis-lycopersici (Forl), lower concentrations—31.25, 62.5, and 93.75 ppm, and the application of the compound was done using the irrigation system.

These results are taken from US11998008B2, “Pesticides and methods of controlling pests” (The State of Israel, Ministry of Agriculture & Rural …, priority 2017, dated 2024).

With `CCCCC/C=C/C=O` [trans-2-octenal], the “number of seeds germinated in treated versus untreated soil” value in data set [1] is listed as “did not differ significantly”. Moreover, the “concentration sufficient to eliminate FORC” value was determined as 62.5 ppm in data set [2] (close condition, except at depth 30 cm) and 62.5 ppm in data set [2] (open conditions, all depths examined (10, 20, 30 cm), 5 days). Besides, the “viability of S. rolfsii sclerotia” value in the data set on sclerotia of S. rolfsii (30 and 50 cm depth) is “No elimination”; in the data set with sclerotia of S. rolfsii (depth 10 cm, open plot) it was “elimination”. Also, the “concentration at which elimination of Forl was achieved” value in data set [3] came out at 31.25 ppm.
